Experimental data published in patent US20220288051A1, “METHODS FOR TREATING CANCER USING SERIAL ADMINISTRATION OF E3 UBIQUITIN LIGASE DEGRADERS” (Dana-Farber Cancer Institute, Inc., priority 2019, published 2022).

Legend:
pools of MM cells = assay: Sequential exposure to CRBN- and VHL-based degraders, CTG; type: cell-based, human; details: compared to treatment-naïve cells
Text: We addressed this question using pools of MM cells derived from several of our genome-scale CRISPR-based screens.

MDR1 transporter = MDR1 transporter (Homo sapiens, UniProt P08183); details: stated as fact; cited from earlier work
MM.1S-dCas9-VP64 cells = assay: Genome-scale CRISPR gene activation resistance screens; type: cell-based, human; details: Calabrese library; successive rounds of treatment
Procedure: We also performed genome-scale CRISPR-based gene-activation screens, which followed the “long-term” configuration of the gene editing studies.
For the genome-scale screen with the Calabrese sgRNA library, tumor cells were transduced in batches of 3×10^7 cells per sublibrary for triplicates. Cells were incubated (18 h) in cell medium containing polybrene (4 μg/mL; Santa Cruz Biotechnology), 10 mM HEPES (pH 7.4) (Sigma-Aldrich) and viral prep (30 mL) diluted 1:1. Transduced cells were cultured at an initial density of 1×10^6 cells/mL and were treated with puromycin (1 μg/mL) for up to 7 days additional two days from transduction. After stable transduction, pooled MM.1S cells were plated at 30×10^6 cells per flask (T175, 100 mL) to enable coverage of 500× and were sub-cultured at three- to four-day intervals to prevent confluence. […]
Cells were immediately harvested (30×10^6) and sgRNA distribution assessed, by next generation sequencing.
iv. […] DNA concentration was quantified by UV-spectroscopy (NanoDrop 8000; ThermoFisher Scientific). […] Multiplexed samples were then sequenced at the Molecular Biology Core Facility (Dana-Farber Cancer Institute) and/or The Genomics Platform (Broad Institute) using an Illumina NextSeq 500 (Illumina, San Diego, Calif.), allowing […] individual reads per multiplexed sample.

MM.1S-Cas9+ cells = assay: Genome-scale CRISPR/Cas9 gene editing (LOF) resistance screens; type: cell-based, human; details: 25 nM for 48 hrs; Brunello library
CDK9 = assay: Immunoblotting of degronimid-treated MM.1S cells: CDK9; type: cell-based, human; details: 0.01-1 μM, 4 h
Procedure: (§1) MM.1S cells were seeded in 6-well plates at 3×10^6 cells/well (˜24 h prior to addition of drug). […] Cell pellets were thawed on ice, lysed using RIPA buffer (ThermoFisher) with protease/phosphatase inhibitor cocktail (Cell Signal Technology, Danvers, Mass.) by incubating on ice 30 min. The lysates were clarified by spinning at 10,000 g for 10 min at 4° C. and the concentration of the lysate was determined using BCA protocol (ThermoFisher). Samples were prepared for Western blot using LDS sample buffer (NuPage, Invitrogen, Carlsbad, Calif., USA) with sample reducing agent (NuPage, Invitrogen) and heated to 95° C. for 5 min. Samples were loaded (20 ug/sample) into Tris-acetate or Bis-Tris gels (NuPage, Invitrogen) and run as per kit instructions using appropriate running buffers. Gels were transferred as described (Matthews et al., 2015) onto PVDF membrane using SDS-based transfer buffer (NuPage, Invitrogen). Membranes were blocked (5% skim milk; or 5% bovine serum albumin in TBS-T) for at least 30 min then probed with primary antibodies overnight (4° C.). […] Each protein of interest (BRD2, BRD3, BRD4, c-myc and CDK9) was assessed in a separate gel and corresponding membrane (which was simultaneously incubated with antibodies for both the target protein of interest and GAPDH, to provide a loading control within the same blot). […]

BRD3 = target: T1, BRD3 (Homo sapiens, UniProt Q15059); assay: Immunoblotting of degronimid-treated MM.1S cells: BRD3; type: cell-based; details: 0.01-1 μM, 4 h
T1 construct: endogenous in cells; host or cells: MM.1S
Procedure: as §1

human MM.1S cells = assay: Xenograft model of diffuse MM lesions; type: in vivo, NSG mice; details: 20 mg/kg, QD, 12 days
Procedure: ii. Xenograft model of diffuse MM lesions: Luciferase-positive MM.1S cells (1×106 Luc-GFP-MM.1S) were injected via the tail vein (IV) into NSG mice. […] BLI was undertaken weekly and mice were euthanized when moribund or upon signs of hind-limb paralysis.

MDR1 transporter, sequence (P08183 whole entry): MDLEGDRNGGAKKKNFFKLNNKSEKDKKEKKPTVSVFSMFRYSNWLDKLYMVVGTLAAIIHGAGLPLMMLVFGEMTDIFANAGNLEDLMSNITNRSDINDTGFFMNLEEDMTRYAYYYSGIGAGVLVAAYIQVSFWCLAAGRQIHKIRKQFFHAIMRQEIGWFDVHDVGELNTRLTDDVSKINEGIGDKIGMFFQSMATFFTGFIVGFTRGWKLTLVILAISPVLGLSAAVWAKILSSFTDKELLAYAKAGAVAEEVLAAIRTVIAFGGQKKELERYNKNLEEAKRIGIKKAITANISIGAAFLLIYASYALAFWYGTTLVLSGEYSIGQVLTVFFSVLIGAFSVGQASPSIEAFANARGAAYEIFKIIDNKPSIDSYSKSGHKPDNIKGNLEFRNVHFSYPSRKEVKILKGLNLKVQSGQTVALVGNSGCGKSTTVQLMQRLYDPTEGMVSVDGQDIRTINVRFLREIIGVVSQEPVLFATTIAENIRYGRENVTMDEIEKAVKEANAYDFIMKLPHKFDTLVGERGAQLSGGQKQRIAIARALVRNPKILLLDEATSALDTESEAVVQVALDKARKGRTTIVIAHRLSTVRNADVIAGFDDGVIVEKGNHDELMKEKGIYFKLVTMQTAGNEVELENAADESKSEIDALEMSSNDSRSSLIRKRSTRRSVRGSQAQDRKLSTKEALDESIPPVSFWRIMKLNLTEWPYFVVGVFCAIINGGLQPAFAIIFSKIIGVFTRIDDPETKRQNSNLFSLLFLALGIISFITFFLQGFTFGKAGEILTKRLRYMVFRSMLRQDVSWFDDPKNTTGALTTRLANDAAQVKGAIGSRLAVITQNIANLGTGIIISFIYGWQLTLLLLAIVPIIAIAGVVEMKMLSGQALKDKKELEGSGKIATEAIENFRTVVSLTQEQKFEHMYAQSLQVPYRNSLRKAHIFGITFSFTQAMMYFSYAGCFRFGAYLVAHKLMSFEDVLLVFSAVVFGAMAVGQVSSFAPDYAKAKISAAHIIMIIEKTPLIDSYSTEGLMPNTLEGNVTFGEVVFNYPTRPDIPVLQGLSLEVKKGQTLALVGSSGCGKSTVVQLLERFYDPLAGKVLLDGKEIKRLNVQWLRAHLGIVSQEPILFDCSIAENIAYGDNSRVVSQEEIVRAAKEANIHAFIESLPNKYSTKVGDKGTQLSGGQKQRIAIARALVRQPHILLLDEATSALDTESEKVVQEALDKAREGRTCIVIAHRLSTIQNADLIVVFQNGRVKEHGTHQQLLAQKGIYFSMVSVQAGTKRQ
T1 sequence (Q15059 whole entry): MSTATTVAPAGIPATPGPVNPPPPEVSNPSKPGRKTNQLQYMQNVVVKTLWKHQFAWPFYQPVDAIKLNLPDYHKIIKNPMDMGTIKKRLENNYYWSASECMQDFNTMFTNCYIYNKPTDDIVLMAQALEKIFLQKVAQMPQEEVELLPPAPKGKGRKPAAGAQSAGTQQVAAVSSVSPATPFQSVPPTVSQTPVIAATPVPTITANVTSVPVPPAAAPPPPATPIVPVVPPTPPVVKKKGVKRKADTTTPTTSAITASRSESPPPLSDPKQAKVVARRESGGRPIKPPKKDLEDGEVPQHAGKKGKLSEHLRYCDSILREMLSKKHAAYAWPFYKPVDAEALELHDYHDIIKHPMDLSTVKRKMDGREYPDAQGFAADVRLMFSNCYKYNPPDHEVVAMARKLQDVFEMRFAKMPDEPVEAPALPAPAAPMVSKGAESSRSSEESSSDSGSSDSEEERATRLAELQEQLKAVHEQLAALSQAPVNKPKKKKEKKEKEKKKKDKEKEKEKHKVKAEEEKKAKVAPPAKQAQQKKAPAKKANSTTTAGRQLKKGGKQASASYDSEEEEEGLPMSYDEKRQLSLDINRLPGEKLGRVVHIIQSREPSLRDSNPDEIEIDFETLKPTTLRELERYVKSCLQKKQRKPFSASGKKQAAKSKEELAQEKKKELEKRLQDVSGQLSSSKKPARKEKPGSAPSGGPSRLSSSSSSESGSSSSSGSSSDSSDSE

Cc1ncsc1-c1ccc([C@H](C)NC(=O)[C@@H]2C[C@@H](O)CN2C(=O)[C@@H](NC(=O)COCCCOCCNC(=O)C[C@@H]2N=C(c3ccc(Cl)cc3)c3c(sc(C)c3C)-n3c(C)nnc32)C(C)(C)C)cc1 [ARV-771]
response of pools previously exposed to ARV771 and then MZ1 (pools of MM cells): significantly decreased responsiveness
shift of dose response curve in pools previously exposed to CRBN-based degraders (pools of MM cells): limited, if any, shift
MDR1 substrate (MDR1 transporter): MDR1 substrates
sgRNA enrichment, gene activation screen (MM.1S-dCas9-VP64 cells): ABCB1, the gene for the MDR1 transporter, was commonly identified as the only gene with sgRNA enrichment

CC(C)(C)c1cnc(CSc2cnc(NC(=O)C3CCN(CC(=O)NCCOCCOCCOCCNc4cccc5c4C(=O)N(C4CCC(=O)NC4=O)C5=O)CC3)s2)o1 (stereo not shown) [Thal-SNS-032]
shift of dose response curve in pools previously exposed to CRBN-based degraders (pools of MM cells): major shifts to the right
sgRNA enrichment, short-term screen (MM.1S-Cas9+ cells): CRBN is the top gene in terms of sgRNA enrichment
CDK9 protein levels (CDK9): causes degradation of CDK9

Cc1sc2c(c1C)C(c1ccc(Cl)cc1)=N[C@@H](CC(=O)NCCCCCCCCNC(=O)COc1cccc3c1C(=O)N(C1CCC(=O)NC1=O)C3=O)c1nnc(C)n1-2 (stereo partly shown) [dBET6]
BRD3 protein levels (BRD3): rapid and robust depletion
sgRNA enrichment, short-term screen (MM.1S-Cas9+ cells): CRBN is the top gene in terms of sgRNA enrichment
MDR1 substrate (MDR1 transporter): MDR1 substrates
overall survival (human MM.1S cells): only minimal overall survival advantage
tumor burden measured by BLI vs vehicle (human MM.1S cells): significantly lower tumor burden
sgRNA enrichment, gene activation screen (MM.1S-dCas9-VP64 cells): ABCB1, the gene for the MDR1 transporter, was commonly identified as the only gene with sgRNA enrichment
